From patent publication US20260207530A1, “USE FOR AMELIORATION OF INTESTINAL DISEASES USING ALLULOSE” (SAMYANG CORPORATION, priority 2022, published 2026) come the findings set out here.

What all share (type): cell-based, human
Test [1] has as its system TLR4/NF-κB signaling and TLR4/MAPK signaling. In words: Expression of TLR4/NF-κB and TLR4/MAPK signaling factors in HT-29 cells with LPS-induced inflammation (RT-PCR, Western blot). As to conditions: HT-29, allulose 5, 10, 20 mM, LPS 1 μg/ml. The method, then: HT-29 cells were treated simultaneously with LPS (1 μg/ml) and allulose, and reacted for 8 hours. Specifically, HT-29 cells were seeded at a concentration of 2×10^5 cells/well in 24-well plates and cultured in an incubator at 37° C. and % CO2 for 6-7 days. Allulose dissolved in RPMI 1640 medium, which is a HT-29 culture medium, was treated simultaneously at concentrations of 5, 10, and 20 mM, and after 8 hours, LPS (1 μg/ml) was treated to induce inflammation for 24 hours.
The gene and protein expression levels of Factors involved in TLR4/NF-κB signaling and TLR4/MAPK signaling were confirmed using RT-PCR and Western blot. After extracting RNA from cells using Trizol, cDNA was synthesized using a cDNA synthesis kit, and the gene expression levels were measured by qRT-PCR using primers designed for each gene. The PCR conditions used were denaturation at 95° C. for 15 seconds, annealing at 62° C. for 30 seconds, and elongation at 72° C. for 1 minute. For protein expression analysis, proteins were extracted from cultured cells using RIPA lysis buffer. The extracted proteins were pretreated by reacting at 95° C. for 5 minutes, and then separated by electrophoresis in SDS-PAGE. After transferring the protein to the PVDF membrane, it was blocked in 5% (w/v) BSA solution for 1 hour, and the primary antibody for each factor was diluted 1:1000 with 5% (w/v) BSA solution and reacted at 4° C. for 1 day. The membrane reacted with the primary antibody was reacted with the secondary antibody in tris-buffered saline solution containing 0.1% (v/v) Tween 20 for 1 hour at room temperature. The bands were detected using the LAS 4000 system, and the expression density was calculated using image detection software (image J software) to calculate the expression amount.
For orientation: Immunoblotting shows a protein as a band on a membrane.

Test [2] concerns mucin genes (MUC2, MUC5AC, MUC5B). In words: Mucin gene expression in HT-29 cells with LPS-induced inflammation (RT-PCR). As to conditions: HT-29, RT-PCR, allulose 5, 10, 20 mM, LPS 1 μg/ml 24 hours. The method, then: The effect of allulose on expression level of mucins was confirmed in HT-29 cells with LPS-induced inflammation. Specifically, HT-29 cells were seeded at a concentration of 2×10^5 cells/well in 24-well plates and cultured in an incubator at 37° C. and % CO2 for 6-7 days. Allulose dissolved in RPMI 1640 medium of a HT-29 culture medium, was simultaneously treated at concentrations of 5, 10, and 20 mM, and after 8 hours, LPS (1 μg/ml) was treated to induce inflammation for 24 hours. Afterwards, the cells were washed with PBS, RNA was extracted from the cells using Trizol, and cDNA was synthesized using a cDNA synthesis kit. Then, the expression level of the gene was assessed by qRT-PCR using primers produced for mucin genes (MUC2, MUC5AC, MUC5B) that protected the intestinal mucosa. The PCR conditions used were denaturation at 95° C. for 15 seconds, annealing at 62° C. for 30 seconds, and elongation at 72° C. for 1 minute.

Test [3] concerns ZO-1 and Occludin. In words: Expression of tight junction factors ZO-1 and Occludin in Caco-2 cells with LPS-induced inflammation (RT-PCR, Western blot). As to conditions: Caco-2, allulose 5, 10, 20 mM 6 hours, then LPS 1 μg/ml 12 hours; vs level decreased by inflammation. The method, then:
Caco-2 cells were cultured in 24-well plates at a density of 2×10^5 cells/well. The medium was replaced every other day, and the cells were cultured for 6 hours after treatment with 5, 10, and 20 mM allulose, and reacted for 12 hours after treatment with LPS (1 μg/ml). After extracting RNA from the cells using Trizol, cDNA was synthesized using a cDNA synthesis kit, and the gene expression level was confirmed by qRT-PCR using primers designed for each gene. The PCR conditions used were denaturation at 95° C. for 15 seconds, annealing at 62° C. for 30 seconds, and elongation at 72° C. for 1 minute. For protein expression analysis, proteins were extracted from the cultured cells using RIPA lysis buffer. The extracted proteins were pretreated by reacting at 95° C. for 5 minutes, and then separated by electrophoresis on SDS-PAGE. After transferring the proteins to the PVDF membrane, they were blocked in a 5% (w/v) BSA solution for 1 hour, and the primary antibodies for each factor were diluted 1:1000 in a 5% (w/v) BSA solution and reacted at 4° C. for 1 day. […] The bands were detected using a LAS 4000 system, and the expression density was calculated using image detection software (image J software) to calculate the expression amount.

For test [4], the system named is TLR4/NF-κB signaling. In words: Expression of TLR4/NF-κB signaling factors in Caco-2 cells with LPS-induced inflammation (RT-PCR, Western blot). Conditions: Caco-2, allulose 5, 10, 20 mM, LPS 1 μg/ml 24 hours. The method, then:
The anti-inflammatory effect of allulose was confirmed in Caco-2 cells with inflammation induced with LPS (Lipopolysaccharide). The gene and protein expression levels of factors (p50, p65, TLR4, MyD88, IKKα, IKKβ, IKβα, IRAK4, TRAF6) related to TLR4/NF-κB signaling, which is a signaling that mediates the inflammatory response, were confirmed through RT-PCR and Western blot.
Specifically, Caco-2 cells were cultured and differentiated at a density of 2×10^5 cells/well in 24-well plates and simultaneously treated with allulose dissolved in MEM medium as culture medium of Caco-2 cells, at concentrations of 5, 10, and 20 mM. After 6 hours, LPS (1 μg/ml) was treated to induce inflammation for 24 hours. The culture was performed in an incubator at 5% CO2 and 37° C.
As a negative control, Caco-2 cells not treated with LPS were used. As a positive control, the differentiated Caco-2 cells which were treated with LPS to induce inflammation but not treated with allulose were used.
After extracting RNA from the cells using Trizol, cDNA was synthesized using a cDNA synthesis kit, and the expression level of the genes was confirmed by qRT-PCR using primers designed for each gene. The PCR conditions used were denaturation at 95° C. for 15 seconds, annealing at 62° C. for 30 seconds, and an elongation process at 72° C. for 1 minute. For protein expression analysis, proteins were extracted from the cultured cells using RIPA lysis buffer. The extracted proteins were pretreated by reaction at 95° C. for 5 minutes, and then separated by electrophoresis on SDS-PAGE. After the proteins were transferred to a PVDF membrane, they were blocked in a 5% (w/v) BSA solution for 1 hour, and the primary antibodies for each factor were diluted 1:1000 in a 5% (w/v) BSA solution and reacted at 4° C. for one day. […] The bands were detected using a LAS 4000 system, and the expression density was calculated using image detection software (Image J software) to calculate the expression amount.

In test [5] the test system is polarized Caco-2 cells. In words: Transepithelial electrical resistance (TEER) in polarized Caco-2 cells treated with IFN-γ/TNF-α. As to conditions: polarized Caco-2, IFN-γ 10 ng/ml 24 hours, allulose 1 hour, TNF-α 10 ng/ml 6 hours; vs TEER decreased by IFN-γ/TNF-α. The procedure:
Transepithelial electrical resistance (TEER) was measured as an indicator of the adhesive strength between intestinal epithelial cells using allulose as an active ingredient, and the electrical resistance values of the upper and lower layers of intestinal cells for allulose materials were examined. Specifically, Caco-2 cells were seeded in the upper layer of a Transwell insert at a concentration of 5×10^4 cells/well, and 600 μl of medium without cells was added to the lower layer and cultured. The medium was replaced every 2 days, and cultured for 3 weeks to form polarization. After polarization formation, the upper layer with cells was pre-treated with IFN-γ (10 ng/ml) for 24 hours, allulose was treated at various concentrations for 1 hour, and TNF-α (10 ng/ml) was treated for 6 hours. After the reaction was completed, the electrical resistance value TEER was measured using a Millicell ERS-2 Voltohmmeter.

For test [6], the system named is Prostaglandin E2 and COX-2. In words: Prostaglandin E2 (ELISA) and COX-2 (RT-PCR) in Caco-2 cells with LPS-induced inflammation. As to conditions: allulose 5, 10, 20 mM 6 hours, then LPS 1 μg/ml 12 hours. The procedure: Caco-2 cells were cultured in 24-well plates at a density of 2×10^5 cells/well. The medium was replaced every two days, and allulose was simultaneously treated at concentrations of 5 mM, 10 mM, and 20 mM, and cultured for 6 hours after treatment and reacted for 12 hours after LPS (1 μg/ml) treatment. The supernatant was used for ELISA analysis, and RNA was extracted from the cells using Trizol, and cDNA was synthesized using a cDNA synthesis kit. Then, the expression level of the genes was assessed by qRT-PCR using primers designed for each gene. The PCR conditions used were denaturation at 95° C. for 15 seconds, annealing at 62° C. for 30 seconds, and an elongation process at 72° C. for 1 minute.
Background: ELISA stands for enzyme-linked immunosorbent assay.

Test [7] concerns Caco-2 cells. In words: ROS accumulation with DCFH-DA fluorescent probe in Caco-2 cells with LPS-induced inflammation. Conditions: Caco-2, LPS 1 μg/ml and allulose 5, 10, 20 mM 12 h. The method, then: Caco- 2 cells were seeded at 5×10^4 cells/well in 96-well plates and cultured. After simultaneous treatment with LPS (1 μg/ml) and allulose at concentrations of 5 mM, 10 mM, and 20 mM, the cells were cultured for 12 h under conditions of 5% CO2 and 37° C. After removing the culture supernatant, DCF-DA was added to the medium at a concentration of 20 μM and cultured in an incubator for 30 min. After culture, the cells were washed with PBS and the amount of ROS production was measured using fluorescence absorbance at excitation of 488 nm and emission of 535 nm.

Regarding `O=C(CO)C(O)C(O)C(O)CO` (centres unmarked) [allulose], in test [1], the “MAPK signal (p38, p-p38, JNK, p-JNK, c-Jun, p-c-Jun, c-Fos, p-c-Fos)” value is on record as “decreased”; the “MyD88, IRAK4, TRAF6 expression” value is listed as “decreased”; the “NF-κB signal (p50, p65, p-p65, Ikkα, Ikkβ, p-Ikkαβ, Ikβα, p-Ikβα)” value is reported as “decreased”; the “expression level of COX-2” value is “decreased”. For the same compound, the “expression level of TLR4” value in test [1] is “decreased”. In test [2], the “expression level of MUC2” value is given as “decreased”, the “expression level of MUC5AC” value is on record as “decreased” and the “expression level of MUC5B” value was “decreased”. In test [3], the “mRNA and protein expression levels of Occludin” value is listed as “increased”; the “mRNA and protein expression levels of ZO-1” value is recorded as “increased”. For the same compound, in test [4], the “expression amount of NF-κB p65/p50” value is on record as “decreased” and the “expression amount of TLR4 activated by LPS” value was “decreased”. Moreover, in test [4] (vs LPS control without allulose), the “expression level of factors related to TLR4/NF-κB signaling (mRNA and protein)” value is “decreased”. For the same compound, the “electrical resistance value (TEER)” value in test [5] was “increased”. In addition, the “concentration of Prostaglandin E2” value in test [6] (Caco-2, ELISA of supernatant) is on record as “decreased”. The “expression level of COX-2” value in test [6] (Caco-2, RT-PCR) is on record as “decreased”. In addition, the “accumulated ROS” value in test [7] is listed as “reduced”.
